Data: US7074807B2, “Compositions and methods for inducing cell death” (Georgetown University, priority 1998, dated 2006)

Legend:
[1] = system: caspase-3 in DU145 cells; test: Caspase-3 activity assay (DEVD-AFC); type: cell-based, human; conditions: 2.5 mM, 2 hr
Experimental: (§1) FIG. 10 illustrates the effect of tempo on caspase-3 activity in prostate cancer cell lines. Cells were treated with 2.5 mM tempo for indicated times in duplicate or triplicate as described in legend to FIG. 2. Representative data from one experiment are shown. Experiments was repeated 2–3 times.
(§2) ApoAlert CPP32 activity/caspase-3 assay kit was used to measure caspase-3 activity in cells according to manufacturer's instructions (Clontech). Briefly, after tempo treatment, cells were washed 3 times with ice-cold PBS and lysed in Clontech cell lysis buffer for 10 min on ice followed by microcentrifugation at 15,000× g for 5 min. Whole cell lysate (50 ug) was incubated for 1 h at 37° C. in caspase-3 reaction mixture containing 10 mM DTT in 2× reaction buffer, 50 uM CPP32 substrate, DEVD-AFC. The amounts of 7-amino-4 trifluoromethyl coumarin (AFC) released were detected by spectrofluorometer (Hitachi F4500) with excitation at 400 nm and emission at 505 nm.

[2] = system: caspase-3 in LNCaP cells; test: Caspase-3 activity assay (DEVD-AFC); type: cell-based, human; conditions: 2.5 mM, 24 hr
Experimental: as §1, §2

[3] = system: caspase-3 in PC3 cells; test: Caspase-3 activity assay (DEVD-AFC); type: cell-based, human; conditions: 2.5 mM, 24 hr
Experimental: as §1, §2

[4] = Kocherginsky et al., 1995; cited from earlier work
[5] = Apoptosis assay (annexin V-FITC/propidium iodide flow cytometry); conditions: human
Experimental: FIGS. (7A1–7A3), (7B1–7B2), (7C1–7C3), (7D1–7D2), (7E1–7E3), (7F1–7F2). […] Cells were grown in serum-free medium overnight in T-25 flasks and treated with tempol (10 mM) or tempo (10 mM) for various times, trypsinized, and then resuspended in 200 ul 1× binding buffer as described in experimental procedures. The cell suspension was double-stained with annexin V-FITC and propidium iodide and analyzed by flow cytometry. Background signal was determined by comparison with double-stained, single-stained, or unstained control cells. (7A1–7A3), (7C1–7C3), and (7E1–7E3) are cytograms showing a relative distribution of viable (V), apoptotic (A), and necrotic (N) cells at 2 h following tempol or tempo treatment of MDA-MB 231 cells (A), PCI-04A cells (C), and PC-3 cells (E). (7B1–7B3), (7D1–7D2), and (7F1–7F2) are time course analyses of MDA-MB 231 cells (B), PCT-04A cells (D), and PC-3 cells (F). 100,000 cells were analyzed at each time point in triplicate (B) or quadruplicate (D and F). Solid bars, 1% ethanol, striped bars, 10 mM tempol, empty bars, 10 mM tempo. […] Data shown are representative from three to four independent experiments. (7B1–7B2), Time course analysis of MDA-MB 231 cells undergoing apoptosis (annexin V-FITC staining) (7B1), or necrosis (propidium iodide staining) (7B2). Values shown are mean±s.d. of triplicate determinations per time point in each treatment category, and representative of three to four independent experiments. […] (7D1–7D2), Time course analysis of PCI-04A cells undergoing apoptosis (annexin V-FITC staining) (7D1), or necrosis (propidium iodide staining) (7D2). Values shown are mean±s.d. of quadruplicate determinations per time point in each treatment category. […] (7F1–7F2), Time course analysis of PC-3 cells undergoing apoptosis (annexin V-FITC staining) (7F1), or necrosis (propidium iodide staining) (7F2). Values shown are mean±s.d. of quadruplicate determinations per time point in each treatment category. Control/C, cells treated with 1% ethanol for 2 h.
Apoptosis Assay—ApoAlert Annexin V apoptosis detection system (Clontech Lab Inc., Palo Alto, Calif.) was used to measure the relative distribution of apoptotic and necrotic cells. Briefly, cells were seeded at a density of 1×10^6 cells per 25 cm^2 tissue culture flask in medium containing 10% FBS overnight, followed by washing twice in serum-free medium. Cells were maintained overnight in serum-free medium and exposed to tempol (10 mM) or tempo (10 mM) for various times. This was followed by rinsing twice with serum-free medium prior to trypsinization, dilution in two volumes of serum-free medium, and centrifugation at 10,000× g. The cell pellet was washed once with PBS and resuspended in 200 ul of 1× binding buffer. The cell suspension was double-labeled with fluorescein isothiocyanate (FITC)-labeled annexin V (10 ul) and propidium iodide (PI) (10 ul) according to the manufacturer's instructions. Unlabeled cells or untreated cells labeled with either FITC-annexin V or PI, or double-labeled served as internal controls for the background signal. The intensity of the dye uptake by cells was detected using FACStar plus Flow Cytometer (Becton Dickerson, Lincoln Park, N.J.), and data were analyzed using Reproman True Facts software (Seattle, Wash.). Viable cells were FITC−/PI−, apoptotic cells were FITC+/PI−, and necrotic cells were FITC+/PI+.

[6] = previous in vitro studies, cited from earlier work

CC1(C)CCCC(C)(C)N1[O] [tempo, 2,2,6,6-tetramethylpiperidine-N-oxyl]
level of caspase-3 activity [1]: ~170% | increase in caspase activity [2]: ~12 fold | level of caspase-3 activity [3]: ~200% | lipophilicity relative to tempol [4]: approximately 200 times

CC1(C)CC(O)CC(C)(C)N1[O] [tempol, 4-hydroxy-tempo, reference compound]
viability at 2 h, 10 mM [5]: 89.8% | protection factor ([6]; 100 mM, radioprotection): 2.2 | concentration required to provide radioprotection [6]: 5 to 10 mM
